The compounds below were run against T1, PIM-1 (Homo sapiens, UniProt P11309) (assay: PIM Kinase Activity Assay-IMAP Fluorescence Polarization Assay (PIM-1)). Settings: 3 μM concentration.
T1 construct: purchased Millipore Corporation 14-573
Format: biochemical
Method: In the present invention, the PIM activities of the compounds were tested by BioDuro (Building E, No. 29 Life Science Park Road, Changping District, Beijing, 102206, P.R. China). The method used for testing is PIM Kinase Activity Assay-IMAP Fluorescence Polarization Assay
PIM Kinase Activity Assay-IMAP Fluorescence Polarization Assay
PIM Is a serine/threonine protein kinase, they can phosphorylate 5-FAM labeled small peptide substrates. Fluorescence polarization is less for non-phosphorylated substrates since that can not bind to the binder (metal binding nanoparticles). On the other hand, fluorescence polarization is more for phosphorylated substrates since that can bind to the binder. The level of 5-FAM labeled small peptide substrates phosphorylation reflects the activities of PIM kinase. By measuring their ability of inhibiting PIM kinase of the compounds of the present invention, their activities of inhibiting PIM kinases can be determined.
EnVision (PerkinElmer, Waltham, Mass.)
PIM1 (Millipore Cat. #14-573) (Millipore Corporation, Billerica, Mass.)
5-FAM labeled peptide (5-FAM-RSRHSSYPAGT, AnaSpec Cat.#63801) (AnaSpec Inc., Fremont, Calif.)
IMAP FP Screening Express kit (IMAP FP Screening kit) (Molecular Devices Cat.# R8127) (Molecular Devices, Sunnyvale, Calif.)
a) 10 mM compound stock solution is diluted to appropriate concentration with 100% DMSO, then diluted 10 fold to targeted concentration with test butter to keep DMSO concentration at 10%
1 ul of compound solution and 4 ul of enzyme (PIM-1final concentration 0.025 nM, PIM-2 concentration 3 nM) is incubated at 23° C. for 15 min, 2.5 ul ATP (for PIM-1 and PIM-2, the final ATP concentrations are 30 uM and 5 uM respectively) 2.5 ul 5-FAM labeled peptide (final concentration 100 nM) was added to start the reaction. The reaction is run at 23° C. for 60 min. DMSO is used in place of compound stock solution as maximum reference and assay buffer is used in place of enzyme as minimum reference. c) add 30 ul IMAP binding reagent (containing 75% IMAP Buffer A, 25% IMAP Buffer B, 1/600 dilution of beads) to stop the reaction, incubated at room temperature for 60 min d) Measure fluorescence polarization, excitation wavelength: 485 nm, emission wavelength 530 nm. 6. Data Process IC50 values were calculated using Graphpad Prism®.

T1 sequence (P11309 whole entry): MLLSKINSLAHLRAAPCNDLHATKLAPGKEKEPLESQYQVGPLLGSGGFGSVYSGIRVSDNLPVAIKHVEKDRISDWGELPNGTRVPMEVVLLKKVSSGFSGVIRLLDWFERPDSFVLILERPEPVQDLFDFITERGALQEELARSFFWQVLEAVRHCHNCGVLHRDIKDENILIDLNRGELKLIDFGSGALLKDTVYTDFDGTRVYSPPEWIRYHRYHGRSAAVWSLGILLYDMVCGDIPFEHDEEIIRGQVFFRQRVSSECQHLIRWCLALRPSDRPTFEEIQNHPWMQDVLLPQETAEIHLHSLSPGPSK

Inhibition at 3 µM, 20 to 50%:
CC(C)c1nc(C(=O)Nc2cncnc2OC2CCNCC2)cs1 [Compound 33, 2-isopropyl-N-(4-(piperidin-4-yloxy)pyrimidin-5-yl)thiazole-4-carboxamide]
O=C(Nc1cncnc1OC1CCNCC1)c1coc(-c2c(F)cccc2F)n1 [Compound 57, 2-(2,6-difluorophenyl)-N-(4-(piperidin-4-yloxy)pyrimidin-5-yl)oxazole-4-carboxamide]
O=C(Nc1cncnc1OC1CCNCC1)c1csc(C2CCNCC2)n1 [Compound 59, 2-(piperidin-4-yl)-N-(4-(piperidin-4-yloxy)pyrimidin-5-yl)thiazole-4-carboxamide]
O=C(Nc1cncnc1OC1CCNCC1)c1csc(N2CCOCC2)n1 [Compound 60, 2-morpholino-N-(4-(piperidin-4-yloxy)pyrimidin-5-yl)thiazole-4-carboxamide]
O=C(Nc1cncnc1OC1CCNCC1)c1csc(N2CCCCC2)n1 [Compound 61, 2-(piperidin-1-yl)-N-(4-(piperidin-4-yloxy)pyrimidin-5-yl)thiazole-4-carboxamide]
CC(=O)Nc1nc(C(=O)Nc2cncnc2OC2CCNCC2)cs1 [Compound 62, 2-acetamido-N-(4-(piperidin-4-yloxy)pyrimidin-5-yl)thiazole-4-carboxamide]
Nc1sc(-c2c(F)cccc2F)nc1C(=O)Nc1cncnc1S(=O)(=O)CCCO [Compound 63, 5-amino-2-(2,6-difluorophenyl)-N-(4-((3-hydroxypropyl)sulfonyl)pyrimidin-5-yl)thiazole-4-carboxamide]
